Several values for one entry are separate records, joined by “and”; a condition that tells them apart may be missing. Equal values may be shown once. Read-outs that look alike come from different tables or passages of the source.
What was measured:
Merlot protoplasts = settings: for Ave colonies per bead / Number of colonies, Total / Number of colonies per bead: + 1.0 mM PUT, 0.1 mM SPD; for Number of colonies, Total: total of 5 beads; for Number of colonies per bead: beads 1-5
Procedure: I have developed and tested an antioxidant solution consisting of 100 mg/l ascorbic acid, 150 mg/l citric acid, 30 mg/l reduced glutathione and 100 mg/l L-cysteine (PTF AQ). I tested the effect of this antioxidant addendum on protoplast viability and division on Thompson seedless and Merlot protoplast culture. Protoplast were isolated and encapsulated in 1.6% calcium alginate beads. Calcium alginate beads from the same protoplast preparation were randomly transferred to shake flasks containing conditioned 0.4 M Pic/TDZ 1103P feeder cell suspensions with or without the addition of 1× or 5× of the antioxidant solutions. After 14 days, the osmotic strength of the feeder suspension was reduced from 0.4 M to 0.2 M mannitol. At day 35, I randomly harvested five beads per treatment and counted the number of mini calli per bead.

TS protoplast = assay: Polyamines: callus colony formation from encapsulated protoplasts in 1103P feeder suspension; type: cell-based, grape; settings: for # colonies/alginate bead: 14 days after encapsulation, beads 1-5; for # colonies/alginate bead, Average / # colonies, Total: 14 days; for # colonies, Total: total of 5 beads
Procedure: We re-suspended embedded protoplasts in conditioned osmotically adjusted grape cell suspension cultures in 125 ml shake flasks and incubated them at 100 rpm and 25 degrees centigrade. In this system, we utilize a grape nurse suspension culture that is of a different genotype than the genotype used to generate the protoplasts. For example, we used 1103P conditioned cell suspension cultures for embedded Thompson Seedless protoplasts.
Recently, we have replaced the use of the shake flasks with 60×15 mm petri plates. This format allows for easy observation of the protoplasts using an inverted microscope and aids sampling of beads to evaluate the fate of the embedded protoplasts. Beads are cultured in 3.5 ml of Lloyd and McCown minimal organics medium supplemented with 30 g/l sucrose, 10 mg/l Picloram and 2.0 mg/l TDZ, 0.4 M mannitol, 1,191 mg/l HEPES, 50 mM CaCl2, 5× antioxidant solution with 1.5 ml of conditioned 1103P cell suspension culture.
We are testing the ability of these polyamines to increase the plating efficiency of encapsulated protoplast as well as increase the rate of cell division. Initially we tested 1.0 mM putrescine in combination with 0.0 or 0.1 mM spermidine since we have previously found these levels to be beneficial in other plant species.

[1] = system: protoplast-derived somatic embryos; assay: Maintenance of embryo-containing beads on sorbitol-containing agar medium; type: cell-based, grape; settings: beads maintained on agar-solidified medium containing sorbitol (50 g/l)
Procedure: Using forceps, we manually transferred individual beads to a 100×20 mm petri dish containing 40 ml of Lloyd and McCown minimal organics medium supplemented with 20 g/l sucrose, 1 g/l casein, 222 mg/l CaCl2, without hormones or activated charcoal. We repeated this transfer/washing process two more times to eliminate any of the feeder suspension cells. We then transferred beads onto agar-solidified 100×20 mm feeder plates containing 40 ml of Lloyd and McCown minimal organics medium supplemented with 20 g/l sucrose, 50 g/l sorbitol, 1 g/l casein, 1 mM MES, 0.5 mg/l BAP and 0.1 mg/l NAA onto which 1.0 ml of a […] grape suspension culture is plated. The grape suspension culture medium consisted of WPM medium supplemented with 20 g/l sucrose 10 mg/l picloram and 2.0 […] mannitol, 222 mg/l CaCl2, 1 g/l casein, 1,191 mg/l HEPES and 2 g/l activated charcoal, pH 5.7. We placed an 85 mm Whatman filter paper over the plated suspension and a 70 mm Whatman filter paper on top of the 85 mm filter. We placed beads on top of the 70 mm filter paper. We add 1 ml Lloyd and McCown minimal organics medium supplemented with 30 g/l sucrose, 1 g/l casein, 1 mM MES, 10 mg/l picloram and 2.0 mg/l TDZ to each plate to prevent desiccation. We incubated the cultures at 26 degrees centigrade in the dark. After approximately 3-4 weeks, mini-calli developed into somatic embryos within the beads (FIG. 15). […]

[2] = SPD 0.0 mM, SPM 0.1 mM, + 1 mM putrescine, Experiment 19129
[3] = SPD 0.0 mM, SPM 1.0 mM, + 1 mM putrescine, Experiment 19129
[4] = SPD 0.0 mM, CAD 0.1 mM, + 1.0 mM putrescine, 0.1 mM spermidine, Experiment 19136
[5] = SPD 0.0 mM, CAD 1.0 mM, + 1.0 mM putrescine, 0.1 mM spermidine, Experiment 19136
[6] = SPD 0.1 mM, CAD 0.0 mM, + 1.0 mM putrescine, 0.1 mM spermidine, Experiment 19136
[7] = SPD 0.1 mM, SPM 0.0 mM, + 1 mM putrescine, Experiment 19129
[8] = SPD 1.0 mM, CAD 0.0 mM, + 1.0 mM putrescine, 0.1 mM spermidine, Experiment 19136
[9] = SPD 1.0 mM, SPM 0.0 mM, + 1 mM putrescine, Experiment 19129

In the case of NCCCNCCCCNCCCN [spermine], the “number and speed of mini-callus formation” value (Merlot protoplasts; Merlot derived protoplasts) is reported as “significantly enhanced the number and speed of mini-callus formation”, the “Ave colonies per bead” value (Merlot protoplasts; SPM 0.1 mM) is reported as 0.2 colonies per bead and the “Number of colonies, Total” value (Merlot protoplasts; SPM 0.1 mM) is reported as 1. The “Ave colonies per bead” value (Merlot protoplasts; SPM 0.25 mM) was 0 colonies per bead, the “Number of colonies per bead” value (Merlot protoplasts; SPM 0.25 mM) was 0 colonies per bead and the “Number of colonies, Total” value (Merlot protoplasts; SPM 0.25 mM) was 0. For the same molecule, the “Ave colonies per bead” value (Merlot protoplasts; SPM 0.5 mM) was 0.2 colonies per bead, the “Number of colonies, Total” value (Merlot protoplasts; SPM 0.5 mM) was 1 and the “Ave colonies per bead” value (Merlot protoplasts; SPM 0.75 mM) was 0 colonies per bead. The “Number of colonies per bead” value (Merlot protoplasts; SPM 0.75 mM) was 0 colonies per bead, the “Number of colonies, Total” value (Merlot protoplasts; SPM 0.75 mM) was 0 and the “Ave colonies per bead” value (Merlot protoplasts; SPM 1.0 mM) was 6.2 colonies per bead. The “Number of colonies, Total” value (Merlot protoplasts; SPM 1.0 mM) was 31, the enhancement in growth (TS protoplast; 0.1 mM spermine, + 1.0 mM putrescine) was “did not see any enhancement in growth” and the callus colony growth (TS protoplast; 1.0 mM spermine, 21 days of culture, regardless of the level of CAD) was “significant enhancement in callus colony growth”. The “number of protoplasts that divided and speed of protoplast derived callus formation” value (TS protoplast; 1.0 mM spermine, + 1.0 mM putrescine, irrespective of the spermidine concentration) was “enhanced the number of protoplasts that divided and the speed of protoplast derived callus formation”, the “# colonies/alginate bead” value (TS protoplast; SPD 0.0 mM, SPM 0.1 mM, + 1 mM putrescine, Experiment 19129, listed as SPM) was 96 colonies/alginate bead and 81 colonies/alginate bead and 79 colonies/alginate bead and 59 colonies/alginate bead and 84 colonies/alginate bead and the “# colonies/alginate bead, Average” value (TS protoplast; [2]) was 79.8 colonies/alginate bead. The “# colonies, Total” value (TS protoplast; [2]) was 399, the “# colonies/alginate bead, Average” value (TS protoplast; [3]) was 205.8 colonies/alginate bead and the “# colonies, Total” value (TS protoplast; [3]) was 1029. The “number and speed of mini-callus formation” value (TS protoplast; Thompson seedless derived protoplasts) was “significantly enhanced the number and speed of mini-callus formation”.
With NCCCCCN [cadaverine] the “# colonies/alginate bead” value (TS protoplast; SPD 0.0 mM, CAD 0.1 mM, + 1.0 mM putrescine, 0.1 mM spermidine, Experiment 19136, listed as CAD) was 100 colonies/alginate bead and 115 colonies/alginate bead and 92 colonies/alginate bead and 104 colonies/alginate bead and 95 colonies/alginate bead, the “# colonies/alginate bead, Average” value (TS protoplast; [4]) was 101.2 colonies/alginate bead and the “# colonies, Total” value (TS protoplast; [4]) was 506. The “# colonies/alginate bead” value (TS protoplast; SPD 0.0 mM, CAD 1.0 mM, + 1.0 mM putrescine, 0.1 mM spermidine, Experiment 19136, listed as CAD) was 104 colonies/alginate bead and 82 colonies/alginate bead and 87 colonies/alginate bead and 92 colonies/alginate bead and 73 colonies/alginate bead, the “# colonies/alginate bead, Average” value (TS protoplast; [5]) was 87.6 colonies/alginate bead and the “# colonies, Total” value (TS protoplast; [5]) was 438. For the same molecule, the “cell division or cells growth from grape protoplasts” value (TS protoplast; cadaverine 0.1 or 1.0 mM, + 1.0 mM putrescine, 0.1 mM spermidine, 0.0-1.0 mM spermine) was “does not seem to enhance cell division or cells growth”.
For NCCCCN [putrescine], the callus colony formation (TS protoplast; 1.0 mM putrescine) was “stimulated callus colony formation”.
OC[C@@H](O)[C@@H](O)[C@H](O)[C@@H](O)CO [sorbitol] was tested, and the “germination of embryos in beads” value [1] was “will not germinate further and become dormant”.
In the case of NCCCCNCCCN [spermidine], the “callus colony formation, addition to 1.0 mM putrescine” value (TS protoplast; 0.1 mM spermidine) is reported as “did not enhance the response”, the “# colonies/alginate bead” value (TS protoplast; SPD 0.1 mM, CAD 0.0 mM, + 1.0 mM putrescine, 0.1 mM spermidine, Experiment 19136, listed as SPD) is reported as 68 colonies/alginate bead and 79 colonies/alginate bead and 64 colonies/alginate bead and 65 colonies/alginate bead and 86 colonies/alginate bead and the “# colonies/alginate bead, Average” value (TS protoplast; [6]) is reported as 72.4 colonies/alginate bead. The “# colonies, Total” value (TS protoplast; [6]) was 362, the “# colonies/alginate bead” value (TS protoplast; SPD 0.1 mM, SPM 0.0 mM, + 1 mM putrescine, Experiment 19129, listed as SPD) was 91 colonies/alginate bead and 93 colonies/alginate bead and 120 colonies/alginate bead and 110 colonies/alginate bead and the “# colonies/alginate bead, Average” value (TS protoplast; [7]) was 101.4 colonies/alginate bead. The “# colonies, Total” value (TS protoplast; [7]) was 507, the “# colonies/alginate bead” value (TS protoplast; SPD 1.0 mM, CAD 0.0 mM, + 1.0 mM putrescine, 0.1 mM spermidine, Experiment 19136, listed as SPD) was 133 colonies/alginate bead and 121 colonies/alginate bead and 115 colonies/alginate bead and 98 colonies/alginate bead and the “# colonies/alginate bead, Average” value (TS protoplast; [8]) was 120 colonies/alginate bead. For the same molecule, the “# colonies, Total” value (TS protoplast; [8]) was 600, the “# colonies/alginate bead” value (TS protoplast; SPD 1.0 mM, SPM 0.0 mM, + 1 mM putrescine, Experiment 19129, listed as SPD) was 81 colonies/alginate bead and 97 colonies/alginate bead and 79 colonies/alginate bead and 125 colonies/alginate bead and 89 colonies/alginate bead and the “# colonies/alginate bead, Average” value (TS protoplast; [9]) was 94.2 colonies/alginate bead. The “# colonies, Total” value (TS protoplast; [9]) was 471.

— US12593767B2, “Protoplast isolation and regeneration of plants” (The Regents of the University of California, priority 2019, dated 2026)
